Test in all cases: inhibition of tumour cell growth, NCI panel, 48 h
Test [1] deals with HT29 colon.
For test [2], the system named is IGROV1 ovarian.
Test [3] deals with MALME-3M melanoma.
The subject of test [4] is NCI-H522 lung.
The subject of test [5] is NCI/ADR-RES ovarian.
Test [6] has as its system OVCAR-3 ovarian.
The subject of test [7] is SF-268 CNS.
For test [8], the system named is TK-10 renal.
The subject of test [9] is U251 CNS.
Test [10] concerns UACC-257 melanoma.

“And” between values parts separate entries of the source, which are not always exact repeats. Identical values can stand only once.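 These data come from cells grown in 96-well plates and exposed to compound for 48 hours at five concentrations. GI50 is the concentration that inhibits growth by half. The concentration for full growth arrest is given as TGI.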 Bounds are passed on as bounds.

Turning to `COC(=O)[C@@H](C)C[C@H](Cc1ccccc1)NC(=O)c1cccc([C@@H](C[C@H](C(C)C)N(C)C(=O)[C@@H](NC(=O)[C@H]2CCCCN2C)C(C)C)OC(C)=O)n1`, the GI50 in test [1] is less than 0.00167 µM; in test [2], less than 0.00167 µM; in [3], less than 0.00167 µM; in [4] it was less than 0.00167 µM; in [5], 0.152 µM; in test [6], less than 0.00167 µM. For the same molecule, the GI50 in [7] was 0.0164 µM; in test [9], less than 0.00167 µM; in test [10] it was 0.0118 µM. For the same molecule, the TGI in [1] was greater than 16.7 µM; in test [2], greater than 16.7 µM; in test [3] it was greater than 16.7 µM; in test [4], 0.00263 µM; in test [5], greater than 5.17 µM; in test [6], 0.00268 µM. The TGI in test [7], in test [8], in [9] and in [10] was greater than 16.7 µM in each case.

Turning to `Cc1ccc(SCN2CCCCC2)cc1` (tested in a mixture with another compound), the TGI in test [1] is 31.5 µM; in [2] it was 10.9 µM; in [3] it was 31.3 µM; in [4], 8.86 µM; in [5], 57.5 µM; in [6], 30 µM. The TGI was 20.6 µM in test [7], 45.3 µM in [8], 23.2 µM in test [9] and 30.6 µM in test [10].

With `COc1ccc(C2CC(c3cccc(Nc4ccnc5cc(Cl)ccc45)c3)=NN2c2ccc(Cl)cc2)cc1` (stereo unspecified), the GI50 in test [2] is 18.8 µM; in test [3] it was 22.7 µM; in test [4] it was 4.09 µM; in [5], 9.51 µM; in test [6] it was 11 µM; in test [7] it was 15.5 µM. In addition, the GI50 in test [8] was 12.9 µM; in test [10], 6.4 µM. For the same molecule, the TGI was greater than 100 µM in [2]; 59.5 µM in [3]; 23.2 µM in test [4]; 43.4 µM in test [5]; greater than 100 µM in [6]; greater than 100 µM in test [7]. The TGI was greater than 100 µM in [8] and 51.4 µM in [10].

In the case of `N#CC1=C(N)Oc2c(ccc3ccccc23)C1c1ccccc1Cl` (stereo unspecified), the GI50 was 0.362 µM in test [1]; 0.455 µM in [2]; 0.617 µM in [3]; 0.0848 µM in [4]; 0.133 µM in test [5]; 0.197 µM in test [6]. The GI50 in test [7] was 1.11 µM; in test [8], 4.95 µM; in [9], 0.407 µM; in test [10], 11 µM. Moreover, the TGI in [1] came to 12.6 µM; in [2], 15.4 µM; in [3], 22.9 µM; in test [4], 3.22 µM; in test [5], 5.62 µM; in test [6] it was 0.493 µM. In addition, the TGI in test [7] was found to be 15.5 µM; in test [8], 44.1 µM; in [9], 17.1 µM; in [10], 38.2 µM.

Take `COc1cccc2c1C(=N)c1c(O)c3c(c(O)c1C2=O)C[C@@](O)(C(C)=O)C[C@@H]3OC1CC(N)C(O)C(C)O1` (stereo partly specified): the TGI in [1] is 7.19 µM and 4.43 µM and 1.71 µM; in test [2], 6.39 µM and 9.25 µM; in test [3], 1.83 µM and 5.14 µM and 2.21 µM; in [4], 2.4 µM and 1.13 µM and 1.91 µM; in test [6] it was 5.43 µM and 4.73 µM and 13 µM; in [7], 3.07 µM and 4.61 µM and 5.69 µM. Further, the TGI in test [8] was 3.7 µM and 2.02 µM; in [10] it was 5.01 µM and 12.1 µM and 6.67 µM. In addition, the values for the GI50 in [5] and in test [8] were 0.466 µM and 0.234 µM, respectively.

For the molecule `COc1cc(OC)c(-c2oc3ccccc3c(=O)c2O)c(OC)c1`, the TGI was greater than 100 µM in [1]; greater than 100 µM in test [2]; 98.3 µM in [3]; greater than 29.2 µM in test [4]; 5.05 µM in test [5]; greater than 100 µM in test [7]. Besides, the TGI in test [8], in test [9] and in test [10] was greater than 100 µM each time.

For the molecule `Oc1c(Br)cc(Br)c2cccnc12`, the GI50 in [1] was 6.55 µM; in test [2] it was 4.18 µM; in [3] it was 3.21 µM; in [5], 2.82 µM; in [6], 3.53 µM; in test [7], 3.36 µM. The GI50 was 14.2 µM in [8], 3.34 µM in test [9] and 2.22 µM in test [10]. Moreover, the TGI was 26.1 µM in [1]; 51.4 µM in [2]; 19 µM in test [3]; greater than 100 µM in test [5]; 15.2 µM in test [6]; greater than 100 µM in [7]. Besides, the TGI was greater than 100 µM in test [8], 18.8 µM in test [9] and 6 µM in [10].

As to `Cc1nn(-c2ccccc2)c2ncc3c(c12)C(=O)N(Cc1ccccc1)C3=O`, the GI50 is greater than 100 µM in test [1]; 5.37 µM in [2]; 5.24 µM in test [3]; 19.8 µM in test [4]; 4.46 µM in test [5]; 3.31 µM in test [6]. Further, the GI50 was 7.66 µM in test [7], 3.12 µM in test [9] and greater than 100 µM in [10]. Moreover, the TGI in test [1] is greater than 100 µM; in test [2], 64.7 µM; in test [3], greater than 100 µM; in test [4], greater than 100 µM; in test [5] it was greater than 100 µM; in [6], 9.84 µM. Also, the TGI in [7] was 66.5 µM; in test [9] it was 14.2 µM; in [10] it was greater than 100 µM.

In the case of `Cc1cc(N2CCOCC2)nc(N(CCNc2ccnc3cc(Cl)ccc23)Cc2cccs2)n1`, the GI50 in test [2] was 1.96 µM; in [3], 2.06 µM; in test [4], 1.72 µM; in test [5], 3.45 µM; in test [7], 3.27 µM; in test [8] it was 2.35 µM. The GI50 in [9] and in test [10] was 1.88 µM in each case. In addition, the TGI was 4.97 µM in test [2]; 3.72 µM in test [3]; 3.72 µM in test [4]; greater than 100 µM in test [5]; 10.6 µM in [7]; 6.57 µM in test [8]. In addition, the TGI was 3.64 µM in test [9] and 3.6 µM in test [10].

For the origin of these results see PubChem BioAssay (NCI).
